These results are taken from patent publication US11028080B2, “Substituted pyrimidines as LRKK2 inhibitors” (Denali Therapeutics Inc., priority 2016, dated 2021).

For the test, the target named is LRRK2 G2019S enzyme (Homo sapiens (Human), UniProt Q5S007, G2019S). The test can be described thus: LRRK2 G2019S biochemical TR-FRET assay (LRRKtide substrate). Particulars: 5 nM LRRK2, 134 μM ATP, 60 minute reaction time, 23° C. As for the experimental part:
Materials: • LRRK2 G2019S enzyme • Substrate (LRRKtide) • ATP • TR-FRET dilution buffer • pLRRKtide antibody • 384-well assay plate • DMSO • Enzyme reaction conditions • 50 mM Tris pH 7.5, 10 mM MgCl2, 1 mM EGTA, 0.01% Brij-35, 2 mM DTT • 5 nM LRRK2 • 134 μM ATP • 60 minute reaction time • 23° C. reaction temperature • 10 μL total reaction volume
Detection reaction conditions • 1×TR-FRET dilution buffer • 10 mM EDTA • 2 nM antibody • 23° C. reaction temperature • 10 μL total reaction volume
Compounds were prepared by initially diluting to 1 mM with DMSO. 35 μL of reference compound solution, 35 μL of test compound solution, and 35 μL HPE were successively added to the source plate (384-well assay plate, Labcyte). The plates were centrifuged at 2500 rpm for 1 minute and sealed in foil. POD was used to perform a 3.162 fold serial dilution and 100 nL of reference compound solution, test compound solution, HPE and ZPE were transferred to assay plates. The assay plate was centrifuged at 2500 rpm for 1 minute, and sealed with foil.
To perform the enzyme reaction, 5 μL of LRRKtide substrate and kinase mixture in assay buffer was added to all wells of the assay plate. The plate was centrifuged to concentrate the mixture at the bottom of the wells. The assay plate was incubated at 23° C. for 20 minutes. Following incubation, 5 μL of 2×ATP in assay buffer was added to each well, and plates were centrifuged to concentrate the mixture at the bottom of the wells. The plate was incubated at 23° C. for 60 minutes.
To perform the detection of the reaction, EDTA completely mixed in TR-FRET dilution buffer was added to antibody reagent. 10 μL of detection reagent was added to all wells of each well of the assay plate and the plate was centrifuged to concentrate the mixture at the bottom of the wells. The plate was then incubated at 23° C. for 60 minutes. Plates were read on Perkin Elmer Envision 2104 instrument in TR-FRET mode using a 340 nm excitation filter, 520 nm fluorescence emission filter, and 490 or 495 nm terbium emission filter.
In the table below, activity is provided as follows: In the table below, activity is provided as follows: +++=IC50 less than 30 nM; ++=IC50 between 30 nM and 60 nM; +=IC50 greater than 60 nM.

Sequence of LRRK2 G2019S enzyme (Q5S007 whole entry G2019S): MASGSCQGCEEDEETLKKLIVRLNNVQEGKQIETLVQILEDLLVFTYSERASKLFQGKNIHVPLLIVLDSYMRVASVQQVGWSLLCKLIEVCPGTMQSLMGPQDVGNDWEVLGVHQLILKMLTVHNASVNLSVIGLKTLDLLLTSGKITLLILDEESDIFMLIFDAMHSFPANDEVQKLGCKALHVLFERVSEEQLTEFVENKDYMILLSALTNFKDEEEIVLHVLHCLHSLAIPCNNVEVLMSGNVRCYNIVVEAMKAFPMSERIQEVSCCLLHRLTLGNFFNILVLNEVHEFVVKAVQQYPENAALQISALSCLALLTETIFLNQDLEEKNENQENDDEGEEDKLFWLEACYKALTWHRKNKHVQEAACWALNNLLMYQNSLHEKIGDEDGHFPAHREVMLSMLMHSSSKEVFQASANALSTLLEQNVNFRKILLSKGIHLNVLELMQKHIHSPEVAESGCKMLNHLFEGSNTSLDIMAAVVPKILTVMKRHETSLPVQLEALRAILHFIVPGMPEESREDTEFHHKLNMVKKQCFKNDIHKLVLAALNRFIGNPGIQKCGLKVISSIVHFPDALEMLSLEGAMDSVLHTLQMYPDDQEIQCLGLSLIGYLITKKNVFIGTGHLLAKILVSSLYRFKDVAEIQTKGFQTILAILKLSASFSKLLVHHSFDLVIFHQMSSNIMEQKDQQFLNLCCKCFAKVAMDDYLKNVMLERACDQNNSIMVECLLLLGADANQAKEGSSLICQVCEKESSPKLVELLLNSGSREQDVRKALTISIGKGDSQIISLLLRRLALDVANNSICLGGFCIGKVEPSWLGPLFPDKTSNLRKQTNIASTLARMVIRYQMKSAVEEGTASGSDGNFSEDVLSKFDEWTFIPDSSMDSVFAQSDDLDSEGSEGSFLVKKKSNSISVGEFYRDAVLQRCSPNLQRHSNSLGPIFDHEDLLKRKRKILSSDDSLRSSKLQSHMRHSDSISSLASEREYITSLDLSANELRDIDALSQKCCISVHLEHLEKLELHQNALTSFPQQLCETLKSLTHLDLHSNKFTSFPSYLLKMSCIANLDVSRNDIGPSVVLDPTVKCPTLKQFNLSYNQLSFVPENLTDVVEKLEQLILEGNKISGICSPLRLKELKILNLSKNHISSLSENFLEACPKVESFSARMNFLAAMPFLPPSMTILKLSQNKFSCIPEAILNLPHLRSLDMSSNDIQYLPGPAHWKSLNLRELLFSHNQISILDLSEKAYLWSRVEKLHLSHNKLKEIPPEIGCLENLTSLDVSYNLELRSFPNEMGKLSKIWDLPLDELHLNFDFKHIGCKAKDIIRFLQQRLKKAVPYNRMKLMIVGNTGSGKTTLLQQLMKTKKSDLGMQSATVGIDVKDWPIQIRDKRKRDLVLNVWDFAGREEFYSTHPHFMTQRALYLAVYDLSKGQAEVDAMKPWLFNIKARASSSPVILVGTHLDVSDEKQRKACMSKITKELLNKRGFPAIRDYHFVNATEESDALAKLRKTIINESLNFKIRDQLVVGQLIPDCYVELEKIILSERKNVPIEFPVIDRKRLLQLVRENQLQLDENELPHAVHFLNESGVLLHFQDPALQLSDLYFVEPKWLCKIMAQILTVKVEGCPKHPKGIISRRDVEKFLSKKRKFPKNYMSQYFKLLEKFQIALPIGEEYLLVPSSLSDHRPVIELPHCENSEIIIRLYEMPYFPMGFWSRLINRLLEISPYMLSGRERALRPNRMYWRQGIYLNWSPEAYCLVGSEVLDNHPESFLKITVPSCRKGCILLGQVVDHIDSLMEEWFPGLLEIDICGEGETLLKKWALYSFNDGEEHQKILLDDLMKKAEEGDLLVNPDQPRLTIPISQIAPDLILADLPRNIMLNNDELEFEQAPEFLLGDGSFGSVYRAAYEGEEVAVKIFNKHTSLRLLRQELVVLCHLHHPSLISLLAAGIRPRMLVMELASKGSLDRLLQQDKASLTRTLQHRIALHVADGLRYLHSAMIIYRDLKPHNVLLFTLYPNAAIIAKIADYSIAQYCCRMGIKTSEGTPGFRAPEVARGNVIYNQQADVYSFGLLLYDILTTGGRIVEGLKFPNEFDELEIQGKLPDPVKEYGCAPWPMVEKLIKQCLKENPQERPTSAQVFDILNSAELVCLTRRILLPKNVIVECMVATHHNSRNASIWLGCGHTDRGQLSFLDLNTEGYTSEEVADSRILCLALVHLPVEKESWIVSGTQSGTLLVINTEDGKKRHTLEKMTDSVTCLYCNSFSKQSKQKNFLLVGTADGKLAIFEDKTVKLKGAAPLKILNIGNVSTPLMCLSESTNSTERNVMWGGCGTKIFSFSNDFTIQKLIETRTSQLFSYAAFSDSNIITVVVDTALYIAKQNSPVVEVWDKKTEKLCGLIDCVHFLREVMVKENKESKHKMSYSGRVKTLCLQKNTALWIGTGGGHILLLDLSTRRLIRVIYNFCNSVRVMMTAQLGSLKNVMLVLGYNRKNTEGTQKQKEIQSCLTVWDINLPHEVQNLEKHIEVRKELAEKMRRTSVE

What is called IC50 is the midpoint of a concentration-inhibition curve. A low value points to greater potency in that assay. For the compound `Cc1nc(C2(c3nc[nH]n3)CC2)sc1Nc1ncc(C(F)(F)F)c(C2CC2)n1` [Compound 3], the IC50 was below 30 nM.

Turning to `CCNc1nc(Nc2sc(C(=O)N3CCC(F)(F)C3)nc2C)ncc1C(F)(F)F` [Compound 10], the IC50 was below 30 nM.

`CNc1nc(Nc2sc(C3(C#N)CC3)nc2C)ncc1C(F)(F)F` [Compound 2] displayed an IC50 below 30 nM.

`[2H]C([2H])([2H])C1(c2nc(Cl)c(Nc3ncc(Br)c(OC)n3)s2)CCNC1=O` (single isomer, unassigned) [Compound 48] displayed an IC50 below 30 nM.

The compound `CCNc1nc(Nc2sc(C(=O)N3CC4CCC(C3)O4)nc2C)ncc1C(F)(F)F` [Compound 33] yielded an IC50 below 30 nM.

Compound `CNc1nc(Nc2sc(C(C)(C)C(N)=O)nc2Cl)ncc1C(F)(F)F` [Compound 25] gave an IC50 below 30 nM.

For `[2H]C([2H])([2H])C1(c2nc(Cl)c(Nc3ncc(C(F)(F)F)c(NC)n3)s2)CCNC1=O` (single isomer, unassigned) [Compound 42], the IC50 was below 30 nM.

The compound `CNc1nc(Nc2cn(C)c(C#N)c2C)ncc1C(F)(F)F` [Compound 14, 1,3-dimethyl-4-((4-(methylamino)-5-(trifluoromethyl)pyrimidin-2-yl)amino)-1H-pyrrole-2-carbonitrile] displayed an IC50 below 30 nM.

In the case of `[2H]C([2H])([2H])C1(c2nc(Cl)c(Nc3ncc(Br)c(OC)n3)s2)CCNC1=O` (single isomer, unassigned) [Compound 49], the IC50 is below 30 nM.

In turn, `CCNc1nc(Nc2sc(C(C)(C)C(N)=O)nc2C)ncc1C(F)(F)F` [Compound 26] showed an IC50 below 30 nM.

On to `[2H]C([2H])([2H])N1CCC(c2nc(Cl)c(Nc3ncc(C(F)(F)F)c(NCC)n3)s2)(C([2H])([2H])[2H])C1=O` (single isomer, unassigned) [Compound 47], for which the IC50 was below 30 nM.

Take `CC(C)(C(N)=O)c1nc(Cl)c(Nc2ncc(C(F)(F)F)c(NC3CC3)n2)s1` [Compound 34]: the IC50 is below 30 nM.

`CNc1nc(Nc2sc(C(C)(C)C(N)=O)nc2C)ncc1C(F)(F)F` [Compound 22] displayed an IC50 below 30 nM.

The compound `CCNc1nc(Nc2cn(Cc3ccn(C)n3)c(C#N)c2C)ncc1C(F)(F)F` [Compound 15, 4-((4-(ethylamino)-5-(trifluoromethyl)pyrimidin-2-yl)amino)-3-methyl-1-((1-methyl-1H-pyrazol-3-yl)methyl)-1H-pyrrole-2-carbonitrile] showed an IC50 below 30 nM.

`[2H]C([2H])([2H])N1CCC(c2nc(Cl)c(Nc3ncc(C(F)(F)F)c(NC)n3)s2)(C([2H])([2H])[2H])C1=O` (single isomer, unassigned) [Compound 44] showed an IC50 below 30 nM.

In turn, `CCNc1nc(Nc2sc(C(C)(C)C(N)=O)nc2Cl)ncc1Br` [Compound 38] returned an IC50 below 30 nM.

The compound `CC(C)(C(N)=O)c1nc(Cl)c(Nc2ncc(C(F)(F)F)c(NCC(F)F)n2)s1` [Compound 40] came in with an IC50 below 30 nM.

With `Cc1nc(C(C)(C)C(N)=O)sc1Nc1ncc(C(F)(F)F)c(NC2CC2)n1` [Compound 29], the IC50 was below 30 nM.

As to `[2H]C([2H])([2H])C1(c2nc(Cl)c(Nc3ncc(C(F)(F)F)c(NC)n3)s2)CCNC1=O` (single isomer, unassigned) [Compound 43], the IC50 is below 30 nM.

Compound `[2H]C([2H])([2H])C1(c2nc(C3CC3)c(Nc3ncc(Br)c(OC)n3)s2)CCNC1=O` (single isomer, unassigned) [Compound 54] gave a concentration for half-maximal inhibition (IC50) below 30 nM.

Compound `CCNc1nc(Nc2cn(S(C)(=O)=O)c(C#N)c2C)ncc1C(F)(F)F` [Compound 16, 4-((4-(ethylamino)-5-(trifluoromethyl)pyrimidin-2-yl)amino)-3-methyl-1-(methylsulfonyl)-1H-pyrrole-2-carbonitrile] returned an IC50 below 30 nM.

On to `COc1nc(Nc2sc(C(C)(C)C(N)=O)nc2Cl)ncc1Br` [Compound 39], for which the IC50 was below 30 nM.

In turn, `CCNc1nc(Nc2sc(C#N)nc2C)ncc1C(F)(F)F` [Compound 27] registered an IC50 below 30 nM.

Compound `[2H]C([2H])([2H])N1CCC(c2nc(Cl)c(Nc3ncc(C(F)(F)F)c(NC)n3)s2)(C([2H])([2H])[2H])C1=O` (single isomer, unassigned) [Compound 45] had an IC50 below 30 nM.

`Cc1nc(C(C)(C)c2nnn(C)n2)sc1Nc1ncc(C(F)(F)F)c(C2CC2)n1` [Compound 31] yielded an IC50 below 30 nM.

On to `CNc1nc(Nc2sc(C(C)(C)C#N)nc2Cl)ncc1C(F)(F)F` [Compound 36], for which the IC50 is below 30 nM.

Consider `[2H]C([2H])([2H])C1(c2nc(C3CC3)c(Nc3ncc(C(F)(F)F)c(NC)n3)s2)CCNC1=O` (single isomer, unassigned) [Compound 59], for which the IC50 was below 30 nM.

The compound `Cc1nc(C(C)(C)c2nc[nH]n2)sc1Nc1ncc(C(F)(F)F)c(C2CC2)n1` [Compound 1] returned an IC50 below 30 nM.

Consider `CCNc1nc(Nc2sc(C(C)(C)C(N)=O)nc2Cl)ncc1C(F)(F)F` [Compound 37], for which the IC50 is below 30 nM.

The compound `[2H]C([2H])([2H])N1CCC(c2nc(C)c(Nc3ncc(C(F)(F)F)c(NC)n3)s2)(C([2H])([2H])[2H])C1=O` (stereo not shown) [Compound 23] had a 50% inhibitory concentration (IC50) below 30 nM.

On to `CNc1nc(Nc2sc(C(C)(C)C#N)nc2C)ncc1C(F)(F)F` [Compound 17, 2-methyl-2-(4-methyl-5-((4-(methylamino)-5-(trifluoromethyl)pyrimidin-2-yl)amino)thiazol-2-yl)propanenitrile], for which the IC50 is below 30 nM.

For the compound `CCNc1nc(Nc2sc(C(=O)N3CCOCC3)nc2C)ncc1C(F)(F)F` [Compound 24], the IC50 was below 30 nM.

In the case of `CC(C)(C(N)=O)c1nc(Cl)c(Nc2ncc(Br)c(NC3CC3)n2)s1` [Compound 41], the IC50 is below 30 nM.

`[2H]C([2H])([2H])C1(c2nc(C3CC3)c(Nc3ncc(C(F)(F)F)c(NC)n3)s2)CCNC1=O` (single isomer, unassigned) [Compound 60]: the IC50 was below 30 nM.

`[2H]C([2H])([2H])C1(c2nc(C3CC3)c(Nc3ncc(C(F)(F)F)c(NCC)n3)s2)CCNC1=O` (single isomer, unassigned) [Compound 51] came in with an IC50 below 30 nM.

`[2H]C([2H])([2H])C1(c2nc(C3CC3)c(Nc3ncc(C(F)(F)F)c(NCC)n3)s2)CCNC1=O` (single isomer, unassigned) [Compound 52] displayed an IC50 below 30 nM.

For the compound `CNc1nc(Nc2sc(C(C)(C)C#N)nc2C2CC2)ncc1C(F)(F)F` [Compound 61], the IC50 is below 30 nM.

As to `[2H]C([2H])([2H])C1(c2nc(C3CC3)c(Nc3ncc(Br)c(OC)n3)s2)CCNC1=O` (single isomer, unassigned) [Compound 53], the half-maximal inhibitory concentration (IC50) was below 30 nM.

In the case of `CCNc1nc(Nc2sc(C3(C#N)CC3)nc2C)ncc1C(F)(F)F` [Compound 32], the IC50 is below 30 nM.

Consider `Cc1nc(C(C)(C)C(N)=O)sc1Nc1ncc(C(F)(F)F)c(C2CC2)n1` [Compound 30], for which the half-inhibitory concentration (IC50) is below 30 nM.

`CCNc1nc(Nc2sc(C(C)(C)C#N)nc2Cl)ncc1C(F)(F)F` [Compound 50]: the 50% inhibitory concentration (IC50) was below 30 nM.

In the case of `[2H]C([2H])([2H])N1CCC(c2nc(Cl)c(Nc3ncc(C(F)(F)F)c(NCC)n3)s2)(C([2H])([2H])[2H])C1=O` (single isomer, unassigned) [Compound 46], the IC50 was below 30 nM.

In turn, `CCNc1nc(Nc2sc(C(=O)NC)nc2C)ncc1C(F)(F)F` [Compound 28] registered an IC50 below 30 nM.
